For one data set, the system named is mammary tumors. As to the kind of experiment: Bioassay of mammary cancer prevention (MNU-induced mammary carcinogenesis). It counts as in vivo, Female Sprague-Dawley rats. To be noted: CLA 0.05-0.37% (treatments A-D); vaccenic acid 0.73-1.6% (treatments E-G). The protocol: (§1) Protocol of animal treatment. Female Sprague-Dawley rats were purchased from Charles River Breeding Laboratories (Raleigh, N.C.) at 45 days of age and all subsequent procedures were approved by Roswell Park Cancer Institute Animal Care and Use Committee. Rats were fed the AIN-76 basal diet for 1 week to acclimatize them to the powdered diet. All animals were injected with a single dose of methylnitrosourea (MNU: 50 mg/kg body weight) intraperitoneally at 52 days of age for the induction of mammary tumors. Immediately after MNU administration, a total of 210 rats were divided into 7 groups of 30 each and maintained on different dietary treatments for the following 24 weeks. Throughout this period, rats were palpated weekly to determine the appearance, size, and location of mammary tumors. The experiment was terminated at 24 weeks after MNU administration. All tumors were excised and fixed for histological examination and only confirmed carcinomas are reported in data summaries. Randomly-selected subsets of nine rats from each treatment were necropsied. The tumor-free inguinal mammary fat pad, a portion of the liver, and plasma were retrieved. […]
(§2) Statistical analyses. Fatty acid composition data were analyzed statistically by the General Linear Model procedure of SAS (SAS Inc., Cary, N.C.). […]

Data set [1] can be described thus: Fatty acid analysis of liver, plasma and mammary fat pad lipids (Example 1). It counts as in vivo, Female Sprague-Dawley rats. As for the experimental part:
as §1, with “administration.” for “administration. All tumors were excised and fixed for histological examination and only confirmed carcinomas are reported in data summaries. Randomly-selected subsets of nine rats from each treatment were necropsied. The tumor-free inguinal mammary fat pad, a portion of the liver, and plasma were retrieved.”
Fatty acid analysis. […] However, because these typically yielded far less lipid, quantities of all reagents for methylation were adjusted to compensate for the reduced yield.
Fatty acid methyl esters were analyzed by gas chromatography (Hewlett Packard GC system 6890+with flame ionization detector) using a CP-Sil 88 capillary column (100 m×0.25 mm i.d. with 0.2 μm film thickness; Varian Inc.). […]
as §2

Each structure is given as a SMILES string.

Turning to `CCCCCC/C=C/C=C\CCCCCCCC(=O)O` [cis-9, trans-11 CLA, cis-9, trans-11 octadecadienoic acid, reference compound], the “Effect of increasing dietary intake on tumor incidence (in words)” value in the data set on mammary tumors is “the decrease was not statistically significant”.
As for `CCCCCC/C=C/CCCCCCCCCC(=O)O` [vaccenic acid, trans-11 octadecenoic acid], in the data set with mammary tumors, the “Effect of increasing dietary intake on tumor incidence (in words)” value is on record as “distinct inhibitory response to vaccenic acid which was dose-dependent”. Further, the “Tissue and plasma concentrations of vaccenic acid with increasing intake (in words)” value in data set [1] (FIG. 1) is listed as “increased”. The “Content of cis-9, trans-11 CLA within each tissue with increasing supply of vaccenic acid (in words)” value in data set [1] (liver, plasma, mammary fat pad, FIG. 3) is reported as “linearly increased”.
